Measured values from the NIST ThermoML archive (doi:10.1021/acs.jced.5b01023).
Values joined by “and” are separate entries in the source; they are usually repeats but may differ in a detail not shown here. Equal entries are not always repeated. Numbers after ± are expanded uncertainties.

Assays:
[1] = refractive index (Na D-line) (dimensionless); settings: 101 kPa, Liquid, Standard Abbe refractometry
[2] = for viscosity / mass density: 101 kPa, Liquid; for viscosity: Capillary tube (Ostwald / Ubbelohde) method; for mass density: Vibrating tube method
[3] = xn = mol fraction of the nth substance listed; settings: for viscosity / mass density: 101 kPa, Liquid; for viscosity: Capillary tube (Ostwald / Ubbelohde) method; for mass density: Vibrating tube method
[4] = refractive index (Na D-line) (dimensionless); xn = mol fraction of the nth substance listed; settings: 101 kPa, Liquid, Standard Abbe refractometry, x2 = 0

CC(=O)[O-].CCn1cc[n+](C)c1 [1-ethyl-3-methylimidazolium acetate]
Settings | mass density, [2] [kg/m3] | refractive index, [1] | viscosity, [2] [mPa·s]
288.15 K | 1105.2 ± 1.4 | 1.50285 ± 0.00053 | 283.8 ± 8.9
298.15 K | 1099.03 ± 1.4 | 1.50069 ± 0.00053 | 139 ± 3.1
308.15 K | 1092.93 ± 1.3 | 1.49803 ± 0.00053 | 77.32 ± 1.3
318.15 K | 1086.86 ± 1.3 | 1.49527 ± 0.00053 | 47.37 ± 0.73
328.15 K | 1080.82 ± 1.3 | 1.49266 ± 0.00053 | 31.29 ± 0.48
338.15 K | 1074.83 ± 1.3 | 1.48995 ± 0.00053 | 21.85 ± 0.33
348.15 K | 1068.88 ± 1.3 | 1.48721 ± 0.00053 | 16.01 ± 0.24

[2], Wilhelmy plates
Settings | surface tension liquid-gas
278.2 K | 48.1 ± 0.8 mN/m
288.15 K | 47.7 ± 0.8 mN/m
298.15 K | 47.1 ± 0.8 mN/m
308.15 K | 46.6 ± 0.8 mN/m and 46.1 ± 0.8 mN/m
318.15 K | 46.1 ± 0.8 mN/m
328.15 K | 45.9 ± 0.8 mN/m
338.15 K | 45.4 ± 0.8 mN/m
348.15 K | 45.1 ± 0.8 mN/m

CC(=O)[O-].CCn1cc[n+](C)c1 [1-ethyl-3-methylimidazolium acetate] + CO
surface tension liquid-gas [mN/m], [3], Wilhelmy plate
Settings | x1 = 0.1 | x1 = 0.2 | x1 = 0.3 | x1 = 0.4 | x1 = 0.5 | x1 = 0.6 | x1 = 0.6999 | x1 = 0.8003 | x1 = 0.9003 | x1 = 1
278.2 K | 28.5 ± 0.6 | 32.7 ± 0.6 | 35.9 ± 0.6 | 38.4 ± 0.6 | 40.3 ± 0.7 | 42.1 ± 0.7 | 44.3 ± 0.7 | 45.9 ± 0.7 | 47.6 ± 0.7 | 48.1 ± 0.8
288.2 K | 28.1 ± 0.6 | 32.1 ± 0.6 | 35.3 ± 0.6 | 38 ± 0.6 | 40 ± 0.7 | 41.6 ± 0.7 | 43.8 ± 0.7 | 45.1 ± 0.7 | 46.9 ± 0.7 | 47.7 ± 0.8
298.2 K | 27.5 ± 0.6 | 31.6 ± 0.6 | 35 ± 0.6 | 37.5 ± 0.6 | 39.6 ± 0.7 | 41.1 ± 0.7 | 43.3 ± 0.7 | 44.7 ± 0.7 | 46.4 ± 0.7 | 47.1 ± 0.8
308.2 K | 26.8 ± 0.6 | 31.1 ± 0.6 | 34.5 ± 0.6 | 37.1 ± 0.6 | 39 ± 0.7 | 40.8 ± 0.7 | 42.8 ± 0.7 | 44.2 ± 0.7 | 45.9 ± 0.7 | 46.6 ± 0.8
318.2 K | 26.3 ± 0.6 | 30.6 ± 0.6 | 33.9 ± 0.6 | 36.5 ± 0.6 | 38.7 ± 0.6 | 40.4 ± 0.7 | 42.4 ± 0.7 | 43.9 ± 0.7 | 45.3 ± 0.7 | 46.1 ± 0.8

CO [methanol]
[2], Wilhelmy plate
Settings | surface tension liquid-gas [mN/m]
278.2 K | 23.8 ± 0.6
288.2 K | 23.6 ± 0.6
298.2 K | 22.7 ± 0.6
308.2 K | 21.9 ± 0.6
318.2 K | 21 ± 0.6

CO [methanol] + CC(=O)[O-].CCn1cc[n+](C)c1
[3], Wilhelmy plate, x2 = 0
Settings | surface tension liquid-gas [mN/m]
278.2 K | 23.8 ± 0.6
288.2 K | 23.6 ± 0.6
298.2 K | 22.7 ± 0.6
308.2 K | 21.9 ± 0.6
318.2 K | 21 ± 0.6

CCCO [propan-1-ol]
Settings | mass density, [2] [kg/m3] | refractive index, [1] | viscosity, [2] [mPa·s]
288.15 K | 807.55 ± 0.14 | 1.38694 ± 0.00035 | 2.506 ± 0.029
298.15 K | 799.56 ± 0.14 | 1.38303 ± 0.00035 | 1.952 ± 0.023
308.15 K | 791.46 ± 0.15 | 1.37914 ± 0.00035 | 1.545 ± 0.018
318.15 K | 783.2 ± 0.15 | 1.375 ± 0.00035 | 1.238 ± 0.014
328.15 K | 774.72 ± 0.16 | 1.37075 ± 0.00035 | 1.006 ± 0.012
338.15 K | 765.98 ± 0.16 | 1.36667 ± 0.00035 | 0.824 ± 0.01
348.15 K | 756.91 ± 0.16 | 1.36201 ± 0.00035 | 0.684 ± 0.008

[2], Wilhelmy plates
Settings | surface tension liquid-gas [mN/m]
288.15 K | 23.9 ± 0.6
298.15 K | 23.4 ± 0.6
308.15 K | 22.4 ± 0.6
318.15 K | 22 ± 0.6
328.15 K | 20.9 ± 0.6
338.15 K | 19.7 ± 0.6
348.15 K | 19 ± 0.6

CCCO [propan-1-ol] + CC(=O)[O-].CCn1cc[n+](C)c1
[4]
Settings | refractive index
288.15 K | 1.38694 ± 0.00035
298.15 K | 1.38303 ± 0.00035
308.15 K | 1.37914 ± 0.00035
318.15 K | 1.375 ± 0.00035
328.15 K | 1.37075 ± 0.00035
338.15 K | 1.36667 ± 0.00035
348.15 K | 1.36201 ± 0.00035

[3], Wilhelmy plates, x2 = 0
Settings | surface tension liquid-gas [mN/m]
288.15 K | 23.9 ± 0.6
298.15 K | 23.4 ± 0.6
308.15 K | 22.4 ± 0.6
318.15 K | 22 ± 0.6
328.15 K | 20.9 ± 0.6
338.15 K | 19.7 ± 0.6
348.15 K | 19 ± 0.6

[3], x2 = 0
Settings | mass density [kg/m3] | viscosity [mPa·s]
288.15 K | 807.55 ± 0.14 | 2.506 ± 0.029
298.15 K | 799.56 ± 0.14 | 1.952 ± 0.023
308.15 K | 791.46 ± 0.15 | 1.545 ± 0.018
318.15 K | 783.2 ± 0.15 | 1.238 ± 0.014
328.15 K | 774.72 ± 0.16 | 1.006 ± 0.012
338.15 K | 765.98 ± 0.16 | 0.824 ± 0.01
348.15 K | 756.91 ± 0.16 | 0.684 ± 0.008

CC(C)O [propan-2-ol]
Settings | mass density, [2] [kg/m3] | refractive index, [1] | viscosity, [2] [mPa·s]
288.15 K | 789.18 ± 0.19 | 1.37933 ± 0.00036 | 2.752 ± 0.033
298.15 K | 780.84 ± 0.19 | 1.37517 ± 0.00036 | 2.018 ± 0.024
308.15 K | 772.23 ± 0.19 | 1.37093 ± 0.00036 | 1.507 ± 0.018
318.15 K | 763.27 ± 0.2 | 1.36643 ± 0.00036 | 1.15 ± 0.014
328.15 K | 753.89 ± 0.2 | 1.36173 ± 0.00036 | 0.895 ± 0.011
338.15 K | 744.02 ± 0.2 | 1.35682 ± 0.00036 | 0.704 ± 0.009

[2], Wilhelmy plates
Settings | surface tension liquid-gas [mN/m]
288.15 K | 21.6 ± 0.6
298.15 K | 21.2 ± 0.6
308.15 K | 20.5 ± 0.6
318.15 K | 19.6 ± 0.6
328.15 K | 18.7 ± 0.6
338.15 K | 17.4 ± 0.6

CC(C)O [propan-2-ol] + CC(=O)[O-].CCn1cc[n+](C)c1
[4]
Settings | refractive index
288.15 K | 1.37933 ± 0.004
298.15 K | 1.37517 ± 0.004
308.15 K | 1.37093 ± 0.004
318.15 K | 1.36643 ± 0.004
328.15 K | 1.36173 ± 0.004
338.15 K | 1.35682 ± 0.004

[3], Wilhelmy plates, x2 = 0
Settings | surface tension liquid-gas [mN/m]
288.15 K | 21.6 ± 0.6
298.15 K | 21.2 ± 0.6
308.15 K | 20.5 ± 0.6
318.15 K | 19.6 ± 0.6
328.15 K | 18.7 ± 0.6
338.15 K | 17.4 ± 0.6

[3], x2 = 0
Settings | mass density [kg/m3] | viscosity [mPa·s]
288.15 K | 789.18 ± 0.19 | 2.752 ± 0.033
298.15 K | 780.84 ± 0.19 | 2.018 ± 0.024
308.15 K | 772.23 ± 0.19 | 1.507 ± 0.018
318.15 K | 763.27 ± 0.2 | 1.15 ± 0.014
328.15 K | 753.89 ± 0.2 | 0.895 ± 0.011
338.15 K | 744.02 ± 0.2 | 0.704 ± 0.009
